Three compounds from paper PMC6437697 (Journal of Medicinal Chemistry, 2019) can be followed below.

One data set in a line: in vitro. The conditions noted are these: human.
The target in a further data set is T1, MEK6 (Homo sapiens, UniProt P52564).
T1 construct: purchased Eurofins DiscoverX KINOMEscan
Nature of the data set: KINOMEscan. The format is binding. The conditions noted are these: read-out: % control activity remaining.

A further data set has as its target T2, FLT3(D835V) (Homo sapiens, UniProt P36888, D835V).
T2 construct: purchased Eurofins DiscoverX KINOMEscan
Nature of the data set: KINOMEscan. The format is binding. Particulars: read-out: % control activity remaining.

For the next data set, the target named is IRE1α (Homo sapiens, UniProt O75460). As to the kind of experiment: biochemical. Format: binding.
The next data set has as its target T3, GRK2 (Homo sapiens, UniProt P25098).
T3 construct: purchased Eurofins DiscoverX KINOMEscan
As to the kind of experiment: KINOMEscan. Format: binding. Particulars: read-out: % control activity remaining.

The target in another data set is T4, PKFYVE (Homo sapiens, UniProt Q9Y2I7).
T4 construct: purchased Eurofins DiscoverX KINOMEscan
Nature of the data set: KINOMEscan. The format is binding. The conditions noted are these: read-out: % control activity remaining.

For a further data set, the target named is T5, VRK2 (Homo sapiens, UniProt Q86Y07).
T5 construct: purchased Eurofins DiscoverX KINOMEscan
T5 sequence (Q86Y07 whole entry): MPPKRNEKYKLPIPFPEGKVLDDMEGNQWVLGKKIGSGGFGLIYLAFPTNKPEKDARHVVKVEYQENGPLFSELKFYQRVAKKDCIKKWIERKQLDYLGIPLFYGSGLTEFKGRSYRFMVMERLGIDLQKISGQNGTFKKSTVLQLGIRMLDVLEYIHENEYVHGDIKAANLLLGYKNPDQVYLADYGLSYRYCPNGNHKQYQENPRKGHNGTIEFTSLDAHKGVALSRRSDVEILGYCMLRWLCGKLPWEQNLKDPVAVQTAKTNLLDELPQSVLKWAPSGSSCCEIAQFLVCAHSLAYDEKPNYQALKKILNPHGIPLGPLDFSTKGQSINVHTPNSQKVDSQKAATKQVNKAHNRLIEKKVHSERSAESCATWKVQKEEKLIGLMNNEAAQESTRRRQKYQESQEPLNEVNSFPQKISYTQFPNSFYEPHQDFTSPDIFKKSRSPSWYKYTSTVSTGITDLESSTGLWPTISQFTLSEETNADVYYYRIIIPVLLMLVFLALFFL
Nature of the data set: KINOMEscan. The format is binding. The conditions noted are these: read-out: % control activity remaining.

For another data set, the target named is T6, WNK2 (Homo sapiens, UniProt Q9Y3S1).
T6 construct: purchased Eurofins DiscoverX KINOMEscan
T6 sequence (Q9Y3S1 whole entry): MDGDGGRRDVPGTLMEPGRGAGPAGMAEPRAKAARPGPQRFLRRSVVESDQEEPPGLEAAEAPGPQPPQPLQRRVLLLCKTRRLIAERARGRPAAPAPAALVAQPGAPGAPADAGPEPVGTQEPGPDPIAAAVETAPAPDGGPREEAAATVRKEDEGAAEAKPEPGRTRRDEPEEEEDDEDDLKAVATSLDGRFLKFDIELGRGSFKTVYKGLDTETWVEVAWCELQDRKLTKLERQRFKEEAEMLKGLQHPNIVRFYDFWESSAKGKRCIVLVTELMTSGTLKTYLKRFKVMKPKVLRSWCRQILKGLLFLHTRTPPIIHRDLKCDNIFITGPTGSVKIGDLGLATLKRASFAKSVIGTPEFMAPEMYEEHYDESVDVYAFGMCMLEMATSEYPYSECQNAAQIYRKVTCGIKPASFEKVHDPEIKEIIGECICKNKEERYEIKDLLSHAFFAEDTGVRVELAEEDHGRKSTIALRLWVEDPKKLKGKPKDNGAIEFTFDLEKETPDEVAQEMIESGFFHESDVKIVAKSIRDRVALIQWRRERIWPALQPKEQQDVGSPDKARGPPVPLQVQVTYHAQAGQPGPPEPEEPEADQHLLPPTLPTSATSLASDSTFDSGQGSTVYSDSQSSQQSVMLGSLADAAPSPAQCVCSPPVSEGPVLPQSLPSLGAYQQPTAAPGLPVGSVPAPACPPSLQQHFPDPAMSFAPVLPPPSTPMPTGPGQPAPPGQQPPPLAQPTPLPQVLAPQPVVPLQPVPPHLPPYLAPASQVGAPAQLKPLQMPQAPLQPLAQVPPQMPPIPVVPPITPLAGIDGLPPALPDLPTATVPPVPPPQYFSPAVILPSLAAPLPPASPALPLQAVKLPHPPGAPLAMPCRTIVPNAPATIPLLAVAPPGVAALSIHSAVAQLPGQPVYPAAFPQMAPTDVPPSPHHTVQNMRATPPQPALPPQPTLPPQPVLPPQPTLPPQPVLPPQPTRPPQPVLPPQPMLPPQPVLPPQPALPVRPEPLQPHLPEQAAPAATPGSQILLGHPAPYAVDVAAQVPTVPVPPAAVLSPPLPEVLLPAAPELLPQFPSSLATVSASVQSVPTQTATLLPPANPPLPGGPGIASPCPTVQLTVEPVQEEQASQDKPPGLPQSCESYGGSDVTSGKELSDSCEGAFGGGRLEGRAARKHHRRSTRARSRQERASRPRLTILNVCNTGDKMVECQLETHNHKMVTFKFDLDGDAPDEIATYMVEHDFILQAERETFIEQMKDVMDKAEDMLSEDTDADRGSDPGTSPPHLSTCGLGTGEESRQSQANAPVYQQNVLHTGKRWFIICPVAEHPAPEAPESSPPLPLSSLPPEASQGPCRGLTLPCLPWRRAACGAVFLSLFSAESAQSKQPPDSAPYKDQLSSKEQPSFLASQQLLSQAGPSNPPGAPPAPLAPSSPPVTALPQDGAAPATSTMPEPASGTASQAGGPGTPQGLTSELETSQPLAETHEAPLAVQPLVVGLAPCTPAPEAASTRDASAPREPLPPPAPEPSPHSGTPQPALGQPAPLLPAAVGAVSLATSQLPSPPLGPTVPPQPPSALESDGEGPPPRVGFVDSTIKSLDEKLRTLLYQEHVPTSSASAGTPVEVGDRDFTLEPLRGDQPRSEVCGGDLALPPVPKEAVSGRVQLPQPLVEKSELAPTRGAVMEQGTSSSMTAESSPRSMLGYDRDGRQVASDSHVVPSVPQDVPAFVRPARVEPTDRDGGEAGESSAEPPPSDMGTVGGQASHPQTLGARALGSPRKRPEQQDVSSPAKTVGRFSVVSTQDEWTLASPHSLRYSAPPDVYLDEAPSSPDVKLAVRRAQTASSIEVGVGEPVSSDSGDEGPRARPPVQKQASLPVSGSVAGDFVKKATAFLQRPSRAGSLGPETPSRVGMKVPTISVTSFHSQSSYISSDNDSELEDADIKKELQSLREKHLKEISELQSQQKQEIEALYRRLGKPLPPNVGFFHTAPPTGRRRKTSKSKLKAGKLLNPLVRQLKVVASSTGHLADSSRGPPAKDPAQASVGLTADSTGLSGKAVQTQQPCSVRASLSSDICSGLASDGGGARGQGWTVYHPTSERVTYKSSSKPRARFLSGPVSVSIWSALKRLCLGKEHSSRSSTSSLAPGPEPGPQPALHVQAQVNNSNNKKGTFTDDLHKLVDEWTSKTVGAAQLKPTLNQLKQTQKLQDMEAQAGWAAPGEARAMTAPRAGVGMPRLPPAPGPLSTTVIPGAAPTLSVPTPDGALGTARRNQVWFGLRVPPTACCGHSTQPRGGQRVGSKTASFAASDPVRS
Nature of the data set: KINOMEscan. The format is binding. Particulars: read-out: % control activity remaining.

The target in another data set is T7, WNK4 (Homo sapiens, UniProt Q96J92).
T7 construct: purchased Eurofins DiscoverX KINOMEscan
T7 sequence (Q96J92 whole entry): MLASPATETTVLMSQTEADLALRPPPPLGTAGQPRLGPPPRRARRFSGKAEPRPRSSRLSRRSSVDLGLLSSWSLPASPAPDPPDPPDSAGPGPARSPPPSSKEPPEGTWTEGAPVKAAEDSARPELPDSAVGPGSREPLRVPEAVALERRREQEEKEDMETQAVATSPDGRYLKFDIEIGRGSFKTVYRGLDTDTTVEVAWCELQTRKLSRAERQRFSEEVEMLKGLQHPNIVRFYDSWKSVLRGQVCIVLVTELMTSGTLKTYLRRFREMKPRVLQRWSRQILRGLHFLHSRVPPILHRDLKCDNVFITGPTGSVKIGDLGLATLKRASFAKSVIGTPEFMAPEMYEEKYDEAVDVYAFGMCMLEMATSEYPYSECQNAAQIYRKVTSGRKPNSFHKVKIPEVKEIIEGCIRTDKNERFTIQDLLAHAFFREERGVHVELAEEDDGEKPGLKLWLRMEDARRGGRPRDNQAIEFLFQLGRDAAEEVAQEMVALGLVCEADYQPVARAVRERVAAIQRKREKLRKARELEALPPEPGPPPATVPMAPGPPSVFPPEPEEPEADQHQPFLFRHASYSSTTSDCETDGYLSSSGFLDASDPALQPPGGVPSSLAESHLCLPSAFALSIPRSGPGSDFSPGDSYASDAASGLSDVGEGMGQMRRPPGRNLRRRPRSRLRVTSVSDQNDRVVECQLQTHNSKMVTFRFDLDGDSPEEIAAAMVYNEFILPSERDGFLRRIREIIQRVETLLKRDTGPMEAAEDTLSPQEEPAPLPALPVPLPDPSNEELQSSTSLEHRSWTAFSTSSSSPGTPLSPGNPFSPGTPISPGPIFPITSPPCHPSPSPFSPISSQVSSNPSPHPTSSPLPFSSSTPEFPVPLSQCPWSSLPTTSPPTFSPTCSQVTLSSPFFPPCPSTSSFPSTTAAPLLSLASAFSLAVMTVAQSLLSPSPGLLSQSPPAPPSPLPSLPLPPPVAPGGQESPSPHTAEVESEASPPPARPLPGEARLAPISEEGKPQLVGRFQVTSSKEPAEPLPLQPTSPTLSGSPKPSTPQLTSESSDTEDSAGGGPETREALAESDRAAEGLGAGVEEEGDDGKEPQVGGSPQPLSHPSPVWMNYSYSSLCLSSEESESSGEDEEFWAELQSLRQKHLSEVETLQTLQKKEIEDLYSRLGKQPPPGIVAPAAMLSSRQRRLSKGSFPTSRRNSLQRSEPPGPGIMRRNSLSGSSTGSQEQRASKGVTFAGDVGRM
As to the kind of experiment: KINOMEscan. Format: binding. The conditions noted are these: read-out: % control activity remaining.

The nature of data set [1]: Aqueous buffer solubility (KSol).
Another data set addresses T8, TSSK3 (Homo sapiens, UniProt Q96PN8).
T8 construct: purchased Eurofins DiscoverX KINOMEscan
Nature of the data set: KINOMEscan. The format is binding. The conditions noted are these: read-out: % control activity remaining.

For a further data set, the system named is FLT3(ITD,D835V). Nature of the data set: KINOMEscan. The format is binding, human. Particulars: 1000 nM.
For the next data set, the target named is T9, GRK3 (Homo sapiens, UniProt P35626).
T9 construct: purchased Eurofins DiscoverX KINOMEscan
Nature of the data set: KINOMEscan. The format is binding. The conditions noted are these: read-out: % control activity remaining.

The target of the next data set is T10, VPS34 (Homo sapiens, UniProt Q8NEB9).
T10 construct: purchased Eurofins DiscoverX KINOMEscan
As to the kind of experiment: KINOMEscan. Particulars: read-out: % control activity remaining. Format: binding.

The test system of another data set is FLT3(ITD,D835Y). Nature of the data set: KINOMEscan. The format is binding, human. Particulars: 1000 nM.
The target of another data set is T11, CDK4 (Homo sapiens, UniProt P11802).
T11 construct: purchased Eurofins DiscoverX KINOMEscan
Nature of the data set: KINOMEscan. Particulars: read-out: % control activity remaining. The format is binding.

The next data set deals with IRE1β (Homo sapiens, UniProt Q76MJ5). Nature of the data set: biochemical. The format is binding.
Chain of IRE1β (Q76MJ5 35-926): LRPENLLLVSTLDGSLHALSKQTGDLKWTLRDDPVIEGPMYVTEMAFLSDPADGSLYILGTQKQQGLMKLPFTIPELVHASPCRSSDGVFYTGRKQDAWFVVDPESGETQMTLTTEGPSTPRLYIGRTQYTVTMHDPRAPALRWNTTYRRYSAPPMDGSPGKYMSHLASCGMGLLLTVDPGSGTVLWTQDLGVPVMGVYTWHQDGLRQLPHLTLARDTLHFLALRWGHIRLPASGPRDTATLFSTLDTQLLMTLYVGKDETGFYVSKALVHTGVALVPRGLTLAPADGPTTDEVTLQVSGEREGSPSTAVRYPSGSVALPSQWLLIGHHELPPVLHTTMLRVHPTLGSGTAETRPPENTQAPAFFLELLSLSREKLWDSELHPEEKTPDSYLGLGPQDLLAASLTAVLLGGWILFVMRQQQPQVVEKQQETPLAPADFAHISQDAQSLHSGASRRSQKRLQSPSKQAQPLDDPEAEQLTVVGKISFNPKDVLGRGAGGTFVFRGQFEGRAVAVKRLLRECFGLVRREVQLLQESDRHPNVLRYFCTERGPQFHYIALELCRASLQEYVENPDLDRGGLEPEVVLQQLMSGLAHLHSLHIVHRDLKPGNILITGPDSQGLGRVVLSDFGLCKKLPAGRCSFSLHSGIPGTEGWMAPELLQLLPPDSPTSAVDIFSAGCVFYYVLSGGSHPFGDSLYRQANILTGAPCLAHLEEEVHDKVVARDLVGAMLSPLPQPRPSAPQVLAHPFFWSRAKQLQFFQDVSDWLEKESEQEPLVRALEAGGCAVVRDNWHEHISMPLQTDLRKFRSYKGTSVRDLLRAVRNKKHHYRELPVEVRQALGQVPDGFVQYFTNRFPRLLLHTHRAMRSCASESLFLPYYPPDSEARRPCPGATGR
Data set [2] has as its system IRE1α-dependent splicing of XBP1u-luciferase mRNA reporter in HEK293 cells. As to the kind of experiment: XBP1 luciferase fusion mRNA splicing reporter in HEK293 cells. The conditions noted are these: Homo sapiens, HEK293, read-out: tunicamycin- and thapsigargin-induced splicing of XBP1 luciferase fusion mRNA IC50. Format: cell-based, human.
Data set [3] concerns GFP-IRE1α oligomerization in HEK293 cells. Nature of the data set: GFP-IRE1α foci (oligomerization) assay in HEK293 cells. The conditions noted are these: absence of tunicamycin. Format: cell-based, human.

In brackets after ≈: the same amount, converted by molar mass. A value given as a limit tells only on which side of the number the result lay.

As to `Clc1cc(NCC2CC2)c2ncc(-c3ccc4[nH]ncc4c3)n2n1` [compound 2, 6-Chloro-N-(cyclopropylmethyl)-3-(1H-indazol-5-yl)imidazo[1,2-b]pyridazin-8-amine], the EC50 in the data set “in vitro” was greater than 49 µM. Also, the remaining binding at 1 µM at MEK6 was 98%.

Regarding `O=C(CN1CCOCC1)N[C@H]1CC[C@H](Nc2cc(Cl)nn3c(-c4ccc5[nH]ncc5c4)cnc23)CC1` [compound 26], the remaining binding at 1 µM on FLT3(D835V) was determined as 0%; on GRK2 it was 84%; on PKFYVE, 87%; at VRK2, 98%; on WNK2 it was 34%; at WNK4, 100%. The remaining binding at 1 µM came out at 100% on TSSK3; 74% at GRK3; 94% on VPS34; 93% on MEK6; 100% on CDK4. Further, the IC50 on IRE1α is 0.039 µM; against IRE1β, 0.345 µM; in data set [2] it was 0.68 to 1.63 µM. This compound yielded an EC50 in the data set “in vitro” greater than 49 µM. The amount in solution in [1] (solubility) came to 80 µM (≈ 40.7 µg/mL). Further, the “% control activity remaining” value was 0.7% with FLT3(ITD,D835V) and 25% with FLT3(ITD,D835Y). Further, the “selectivity for IRE1α over the IRE1β isoform” value at IRE1β was found to be 9 fold. The “stimulation of GFP-IRE1α foci formation by compound on its own” value in data set [3] is reported as “No stimulation”.

On to `CN1CCC(CNc2cc(Cl)nn3c(-c4cc5nc(Nc6ccccc6)[nH]c5cc4F)cnc23)CC1` [compound 31, 6-Chloro-3-(6-fluoro-2-(phenylamino)-1H-benzo[d]imidazol-5-yl)-N-((1-methylpiperidin-4-yl)methyl)imidazo[1,2-b]pyridazin-8-amine], for which the remaining binding at 1 µM came out at 69% at FLT3(D835V); 100% at GRK2; 26% on PKFYVE; 82% at VRK2; 100% on WNK2; 83% at WNK4. For the same compound, the remaining binding at 1 µM at TSSK3 came out at 91%; at GRK3, 91%; on VPS34 it was 97%; at CDK4 it was 100%. Also, the concentration in solution in data set [1] (solubility) was 38 µM (≈ 19.2 µg/mL). Further, the “% control activity remaining” value with FLT3(ITD,D835V) was determined as 76%; in the data set on FLT3(ITD,D835Y), 77%. The figures for the IC50 (against IRE1β; in data set [2]) were 7.68 µM and 0.68 to 1.63 µM, respectively. For the same compound, the “selectivity for IRE1α over the IRE1β isoform” value at IRE1β came to 100 fold. In addition, in data set [3], the “stimulation of GFP-IRE1α foci formation by compound on its own” value is “No stimulation”.

One may read the EC50 as the concentration that produces a half-maximal response. A high value points to a need for much substance. In general, IC50 refers to the midpoint of a concentration-inhibition curve. As usually defined, the solubility is the dissolved amount per volume that the medium holds.
